According to PubChem BioAssay AID330 (DTP/NCI, 2004):
Several values for one entry are separate records, joined by “and”; a condition that tells them apart may be missing. Equal entries are not always repeated. Inconclusive results and toxic doses are left out. Rule for the calls: active = survival T/C of 150% or more; inactive = T/C below 125% in these data.

Tested on: P388 leukemia ip, CD2F1 mice, survival T/C
Test: NCI In Vivo Anticancer Drug Screen. Data for tumor model P388 Leukemia (intraperitoneal) in CD2F1 (CDF1) mice
Settings: endpoint: median survival time, higher = longer survival
Outline: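 Mice carrying the transplanted tumor received test compound or vehicle. Survival was recorded in each group, and the value is the treated-group measurement divided by that of the vehicle-treated control group.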

[1] = dose: 50.0 mg/kg/injection, schedule: Q01DX009 (ip), vehicle: saline with Tween-80
[2] = dose: 60.0 mg/kg/injection, schedule: Q01DX005 (ip), vehicle: saline with Tween-80
[3] = dose: 120.0 mg/kg/injection, schedule: Q01DX005 (ip), vehicle: saline with Tween-80
[4] = dose: 240.0 mg/kg/injection, schedule: Q01DX005 (ip), vehicle: saline with Tween-80
[5] = dose: 50.0 mg/kg/injection, schedule: Q01DX005 (ip), vehicle: Klucel (hydroxypropylcellulose) (HPC)
[6] = dose: 50.0 mg/kg/injection, schedule: Q01DX009 (ip), vehicle: Klucel (hydroxypropylcellulose) (HPC)
[7] = dose: 100.0 mg/kg/injection, schedule: Q01DX009 (ip), vehicle: Klucel (hydroxypropylcellulose) (HPC)
[8] = dose: 200.0 mg/kg/injection, schedule: Q01DX009 (ip), vehicle: Klucel (hydroxypropylcellulose) (HPC)
[9] = dose: 100.0 mg/kg/injection, schedule: Q01DX001 (ip), vehicle: saline with Tween-80
[10] = dose: 200.0 mg/kg/injection, schedule: Q01DX001 (ip), vehicle: saline with Tween-80
[11] = dose: 400.0 mg/kg/injection, schedule: Q01DX001 (ip), vehicle: saline with Tween-80
[12] = dose: 12.5 mg/kg/injection, schedule: Q01DX009 (ip), vehicle: Klucel (hydroxypropylcellulose) (HPC)
[13] = dose: 25.0 mg/kg/injection, schedule: Q01DX009 (ip), vehicle: Klucel (hydroxypropylcellulose) (HPC)
[14] = dose: 50.0 mg/kg/injection, schedule: Q01DX009 (ip), vehicle: suspension in saline
[15] = dose: 100.0 mg/kg/injection, schedule: Q01DX009 (ip), vehicle: suspension in saline
[16] = dose: 200.0 mg/kg/injection, schedule: Q01DX009 (ip), vehicle: suspension in saline

Measured: T/C

c1ccc2c(c1)CCc1ccccc1C2NC1=NCCSC1
inactive: [1] 86 % of control | dose: 100.0 mg/kg/injection, schedule: Q01DX009 (ip), vehicle: saline with Tween-80 93 % of control

Fc1cccc(Cl)c1CSc1n[nH]c(C(F)(F)F)n1
inactive: [2] 102 % of control | [3] 100 % of control | [4] 111 % of control

CC(=O)OCC1OC(c2ccccc2)C/C(=N/O)C1OC(C)=O (stereo not drawn)
inactive: [5] 96 % of control | dose: 100.0 mg/kg/injection, schedule: Q01DX005 (ip), vehicle: Klucel (hydroxypropylcellulose) (HPC) 93 % of control | dose: 200.0 mg/kg/injection, schedule: Q01DX005 (ip), vehicle: Klucel (hydroxypropylcellulose) (HPC) 94 % of control

N=c1nc(N)nc2c3cc(Br)ccc3nnn12
inactive: [2] 113 % of control | [3] 117 % of control | [4] 108 % of control

COc1cc2c(c(=O)c3ccccc3n2C)c2c1c(=O)c1ccccc1n2C
inactive: dose: 60.0 mg/kg/injection, schedule: Q01DX005 (ip), vehicle: Klucel (hydroxypropylcellulose) (HPC) 96 % of control | dose: 120.0 mg/kg/injection, schedule: Q01DX005 (ip), vehicle: Klucel (hydroxypropylcellulose) (HPC) 98 % of control

O=C1c2ccc3ccccc3c2CN2C(=O)CCC12 (stereo not drawn)
inactive: [2] 105 % of control | [3] 103 % of control | [4] 104 % of control

Cc1nc2c([N+](=O)[O-])c(NCc3ccccc3)c([N+](=O)[O-])cc2[nH]1
inactive: dose: 100.0 mg/kg/injection, schedule: Q04DX003 (ip), vehicle: saline with Tween-80 97 % of control | dose: 200.0 mg/kg/injection, schedule: Q04DX003 (ip), vehicle: saline with Tween-80 95 % of control | dose: 400.0 mg/kg/injection, schedule: Q04DX003 (ip), vehicle: saline with Tween-80 101 % of control

FC(F)(F)SN1CN(SC(F)(F)F)CN(SC(F)(F)F)CN(SC(F)(F)F)C1
inactive: dose: 60.0 mg/kg/injection, schedule: Q01DX005 (ip), vehicle: saline 103 % of control and 96 % of control | dose: 120.0 mg/kg/injection, schedule: Q01DX005 (ip), vehicle: saline 96 % of control | dose: 240.0 mg/kg/injection, schedule: Q01DX005 (ip), vehicle: saline 100 % of control

CCC(c1ccc(O)cc1)c1cc2c(cc1OC)OCO2 (stereo not drawn)
inactive: dose: 50.0 mg/kg/injection, schedule: Q01DX005 (ip), vehicle: distilled water + Tween-80 101 % of control | dose: 100.0 mg/kg/injection, schedule: Q01DX005 (ip), vehicle: distilled water + Tween-80 96 % of control | dose: 200.0 mg/kg/injection, schedule: Q01DX005 (ip), vehicle: distilled water + Tween-80 96 % of control

CCCCCCCC/C=C\CCCCCCCC(=O)NCCCN(C)C
inactive: dose: 12.5 mg/kg/injection, schedule: Q01DX009 (ip), vehicle: saline 98 % of control | dose: 25.0 mg/kg/injection, schedule: Q01DX009 (ip), vehicle: saline 91 % of control | [1] 112 % of control

CCCCCCCCCCCCCC(=O)Nc1ncc([N+](=O)[O-])s1
inactive: [6] 94 % of control | [7] 94 % of control | [8] 100 % of control

c1ccc(C2=NN(c3ccccc3)C3(c4ccccc4)CCCN23)cc1 (stereo not drawn)
inactive: [9] 108 % of control | [10] 97 % of control | [11] 95 % of control

CCCCCC1SCC(=O)N1c1nncs1 (stereo not drawn)
inactive: [2] 106 % of control | [3] 103 % of control | [4] 113 % of control

CCCOC(=O)/C=C(\Br)C(=O)OCCC
inactive: dose: 6.25 mg/kg/injection, schedule: Q01DX009 (ip), vehicle: saline with Tween-80 113 % of control | dose: 12.5 mg/kg/injection, schedule: Q01DX009 (ip), vehicle: saline with Tween-80 116 % of control and 117 % of control | dose: 25.0 mg/kg/injection, schedule: Q01DX009 (ip), vehicle: saline with Tween-80 103 % of control

Cc1c(N)nc([C@H](CC(N)=O)NC[C@H](N)C(N)=O)nc1C(=O)N[C@H](C(=O)N[C@H](C)[C@@H](O)[C@H](C)C(=O)N[C@H](C(=O)NCCc1nc(-c2nc(C(=O)NCCC[S+](C)C)cs2)cs1)[C@@H](C)O)C(OC1OC(CO)C(O)C(O)C1OC1OC(CO)C(O)C(OC(N)=O)C1O)c1cnc[nH]1 (stereo partly drawn)
inactive: dose: 3.13 mg/kg/injection, schedule: Q01DX009 (ip), vehicle: Klucel (hydroxypropylcellulose) (HPC) 121 % of control | dose: 3.5 mg/kg/injection, schedule: Q01DX009 (ip), vehicle: saline 100 % of control | dose: 3.6 mg/kg/injection, schedule: Q01DX009 (ip), vehicle: saline 117 % of control | dose: 4.0 mg/kg/injection, schedule: Q04DX003 (ip), vehicle: saline 115 % of control | dose: 5.3 mg/kg/injection, schedule: Q01DX009 (ip), vehicle: saline 107 % of control and 114 % of control | dose: 6.25 mg/kg/injection, schedule: Q01DX009 (ip), vehicle: Klucel (hydroxypropylcellulose) (HPC) 123 % of control | dose: 8.0 mg/kg/injection, schedule: Q04DX003 (ip), vehicle: saline 122 % of control | dose: 12.0 mg/kg/injection, schedule: Q01DX009 (ip), vehicle: saline 106 % of control and 121 % of control | [12] 121 % of control | dose: 16.0 mg/kg/injection, schedule: Q04DX003 (ip), vehicle: saline 121 % of control | [13] 94 % of control

O=C(N/N=C/c1cc(Br)ccc1[O-])c1ccccc1O.O=C(N/N=C/c1cc(Br)ccc1[O-])c1ccccc1O.[Co+2]
inactive: dose: 100.0 mg/kg/injection, schedule: Q04DX002 (ip), vehicle: Klucel (hydroxypropylcellulose) (HPC) 90 % of control | dose: 200.0 mg/kg/injection, schedule: Q04DX002 (ip), vehicle: Klucel (hydroxypropylcellulose) (HPC) 90 % of control

O=C(O)C1CSC(c2ccc(Cl)cc2)N1 (stereo not drawn)
inactive: [14] 95 % of control | [15] 95 % of control | [16] 95 % of control and 96 % of control

C/C(CC(N)=O)=C1\C(=O)NN(c2ccccc2)C1=O
inactive: [2] 108 % of control | [3] 110 % of control | [4] 114 % of control

COP(=O)(OC)C1(Nc2ccccc2)C2CC3CC(C2)CC1C3 (stereo not drawn)
inactive: [9] 105 % of control | [10] 110 % of control | [11] 102 % of control

N#Cc1ccc(OC(=O)Nc2c(Cl)cc(Cl)cc2Cl)cc1
inactive: [2] 100 % of control | [3] 92 % of control

Cc1ccc(NC(=S)SCc2ccc3c(c2)OCO3)cc1Br
inactive: [12] 122 % of control | [13] 102 % of control | [6] 120 % of control | [14] 104 % of control | [7] 115 % of control | [15] 111 % of control | [8] 116 % of control | [16] 104 % of control

OC(CNC1CC2CCC1C2)COc1cccc2ccccc12 (stereo not drawn)
inactive: [13] 107 % of control | [6] 107 % of control | [7] 110 % of control

N#CC(C#N)=NNc1ccc2cn[nH]c2c1
inactive: dose: 12.5 mg/kg/injection, schedule: Q01DX005 (ip), vehicle: Klucel (hydroxypropylcellulose) (HPC) 101 % of control | dose: 25.0 mg/kg/injection, schedule: Q01DX005 (ip), vehicle: Klucel (hydroxypropylcellulose) (HPC) 105 % of control and 107 % of control | [5] 116 % of control and 119 % of control and 120 % of control
